Molecules are shown by their SMILES.

Data set [1] is described as follows: Dynamic vapour sorption (DVS) of selected salts (Example 8). Type of data set: physicochemical. On the procedure: DVS: The moisture sorption properties of the feed API were analyzed by DVS Intrinsic instrument (Surface Measurement System). Approximately 20-50 mg of API was weighed on an aluminum pan and loaded into the instrument equilibrated at 25° C. The sample was allowed to equilibrate under dry atmosphere (0% relative humidity) for 60 minutes before increasing the humidity from 0% to 30% at 5% step increment and from 30% to 90% at 10% step increment. A desorption cycle was also applied from 90% to 30% (10% step) and from 30% to 0% (5% decrement). A rate of change in mass per time unit (dm/dt) of 0.002%/min was set as the equilibrium parameter. Kinetic and isotherm graphs were calculated.

Data set [2] can be described thus: Suspension equilibration of sorbate salt at 20 and 40° C. (Example 10, Experiments 3, 4, 9). The format is physicochemical. As to conditions: for Observations (t = 1 d @ 20° C.) / Observations (t = 10 d @ 20° C.) / Observations (t = 1 d @ 40° C.) / Observations (t = 10 d @ 40° C.): sorbate salt Form A in 5 vol solvent; for Observations (t = 1 d @ 20° C.) / Observations (t = 10 d @ 20° C.) / Observations (t = 0 @ 20° C.) / XRPD (IPC, 6 d, wet) / XRPD (post oven dried) / Observations (t = 1 d @ 40° C.) / Observations (t = 10 d @ 40° C.) / Observations (t = 0 @ 40° C.): one solvent per sample; for Observations (t = 0 @ 20° C.) / Observations (t = 0 @ 40° C.): sorbate salt Form A, ca. 50 mg in 5 vol solvent; for XRPD (IPC, 6 d, wet): moist pellet after 6 d; for XRPD (post oven dried): pellet after oven drying. On the procedure:
The purpose of this panel is to determine if Form A evolves into a supra-ordinate form. The companion panel at 40° C. set-point is in place to detect enantiotropic behaviour via different relative proportions in different solvents. XRPD data of the moist pellets obtained from the suspension equilibration study at 20° C.
The relevant solvent (5 vol) was added to the appropriate vial and the suspensions were stirred and warmed to the predetermined temperature with stirring. […]

Where [3] appears, read: suspension equilibration at 20° C.
The mark [4] stands for this setting: suspension equilibration at 40° C.

Take `COc1ccc2c3c([nH]c2c1)CCN(C)CC3.O=C(O)c1ccccc1` [Tabernanthalog• Benzoate]: the “DVS 0 to 90 to 0% RH (dm/dt <0.002%), mass change” value (“DVS 0 to 90 to 0% RH … mass change” below) is reported as −0.037% in data set [1] (desorption, 0.0% RH); −0.034% in data set [1] (desorption, 5.0% RH); −0.032% in data set [1] (desorption, 10.0% RH); −0.032% in data set [1] (desorption, 15.0% RH); −0.029% in data set [1] (desorption, 20.0% RH); −0.028% in data set [1] (desorption, 25.0% RH). Moreover, the “DVS 0 to 90 to 0% RH … mass change” value in data set [1] (desorption, 30.0% RH) is given as −0.023%; in data set [1] (desorption, 40.0% RH), −0.018%; in data set [1] (desorption, 50.0% RH) it was −0.014%; in data set [1] (desorption, 60.0% RH) it was −0.001%; in data set [1] (desorption, 70.0% RH), 0.034%; in data set [1] (desorption, 80.0% RH), 0.063%. Besides, the “DVS 0 to 90 to 0% RH … mass change” value in data set [1] (desorption, 90.0% RH) is on record as 0.118%; in data set [1] (sorption, 0.0% RH), 0.00%; in data set [1] (sorption, 5.0% RH) it was −0.001%; in data set [1] (sorption, 10.0% RH), 0.002%; in data set [1] (sorption, 15.0% RH) it was −0.002%; in data set [1] (sorption, 20.0% RH), −0.003%. The “DVS 0 to 90 to 0% RH … mass change” value in data set [1] (sorption, 25.0% RH) is on record as −0.002%; in data set [1] (sorption, 30.0% RH) it was 0.002%; in data set [1] (sorption, 40.0% RH), 0.002%; in data set [1] (sorption, 50.0% RH), 0.006%; in data set [1] (sorption, 60.0% RH) it was 0.009%; in data set [1] (sorption, 70.0% RH), 0.009%. The “DVS 0 to 90 to 0% RH … mass change” value in data set [1] (sorption, 80.0% RH) came to 0.046%; in data set [1] (sorption, 90.0% RH) it was 0.118%.
For `CC=CC=CC(=O)O.COc1ccc2c3c([nH]c2c1)CCN(C)CC3` [Experiment 3-Sample F], in data set [2], the “Observations (t = 1 d @ 20° C.)” value is on record as “Suspension”, the “Observations (t = 10 d @ 20° C.)” value is reported as “Suspension” and the “Observations (t = 0 @ 20° C.)” value was “Suspension”. Further, in data set [2] (setting [3]), the “XRPD (IPC, 6 d, wet)” value was “Form A” and the “XRPD (post oven dried)” value is “Form A”.
Take `C/C=C/C=C/C(=O)O.COc1ccc2c3c([nH]c2c1)CCN(C)CC3` [Experiment 4-Sample C]: in data set [2], the “Observations (t = 1 d @ 40° C.)” value is recorded as “Suspension”, the “Observations (t = 10 d @ 40° C.)” value is given as “Suspension” and the “Observations (t = 0 @ 40° C.)” value is “Suspension”. For the same molecule, in data set [2] (setting [4]), the “XRPD (IPC, 6 d, wet)” value is “Form A” and the “XRPD (post oven dried)” value is “Form A”.
`CC=CC=CC(=O)O.COc1ccc2c3c([nH]c2c1)CCN(C)CC3` [Experiment 4-Sample I]: in data set [2], the “Observations (t = 1 d @ 40° C.)” value is recorded as “Suspension”, the “Observations (t = 10 d @ 40° C.)” value was “Suspension” and the “Observations (t = 0 @ 40° C.)” value is “Suspension”. Moreover, in data set [2] (setting [4]), the “XRPD (IPC, 6 d, wet)” value is “Form A” and the “XRPD (post oven dried)” value is on record as “Form A”.
Consider `CC=CC=CC(=O)O.COc1ccc2c3c([nH]c2c1)CCN(C)CC3` [Experiment 3-Sample M], for which, in data set [2], the “Observations (t = 1 d @ 20° C.)” value was “Suspension”, the “Observations (t = 10 d @ 20° C.)” value is recorded as “Suspension” and the “Observations (t = 0 @ 20° C.)” value is recorded as “Suspension”. Also, in data set [2] (setting [3]), the “XRPD (IPC, 6 d, wet)” value is given as “Form A” and the “XRPD (post oven dried)” value is given as “Form A”.
Regarding `CC=CC=CC(=O)O.COc1ccc2c3c([nH]c2c1)CCN(C)CC3` [Experiment 4-Sample D], in data set [2], the “Observations (t = 1 d @ 40° C.)” value is listed as “Suspension”, the “Observations (t = 10 d @ 40° C.)” value is reported as “Suspension” and the “Observations (t = 0 @ 40° C.)” value is “Suspension”. Further, in data set [2] (setting [4]), the “XRPD (IPC, 6 d, wet)” value was “Form A” and the “XRPD (post oven dried)” value was “Form A”.
As to `C/C=C/C=C/C(=O)O.COc1ccc2c3c([nH]c2c1)CCN(C)CC3` [Experiment 4-Sample A], in data set [2], the “Observations (t = 1 d @ 40° C.)” value is “Suspension”, the “Observations (t = 10 d @ 40° C.)” value is on record as “Suspension” and the “Observations (t = 0 @ 40° C.)” value is “Suspension”. In addition, in data set [2] (setting [4]), the “XRPD (IPC, 6 d, wet)” value was “Form A” and the “XRPD (post oven dried)” value is reported as “Form A”.
Turning to `CC=CC=CC(=O)O.COc1ccc2c3c([nH]c2c1)CCN(C)CC3` [Experiment 3-Sample O], in data set [2], the “Observations (t = 1 d @ 20° C.)” value is on record as “Suspension”, the “Observations (t = 10 d @ 20° C.)” value is on record as “Suspension” and the “Observations (t = 0 @ 20° C.)” value is given as “Suspension”. In data set [2] (setting [3]), the “XRPD (IPC, 6 d, wet)” value was “Form A” and the “XRPD (post oven dried)” value is recorded as “Form A”.
For the molecule `C/C=C/C=C/C(=O)O.COc1ccc2c3c([nH]c2c1)CCN(C)CC3` [Experiment 4-Sample M], in data set [2], the “Observations (t = 1 d @ 40° C.)” value is “Suspension”, the “Observations (t = 10 d @ 40° C.)” value is “Suspension” and the “Observations (t = 0 @ 40° C.)” value is reported as “Suspension”. Further, in data set [2] (setting [4]), the “XRPD (IPC, 6 d, wet)” value is “Form A” and the “XRPD (post oven dried)” value was “Form A”.
Regarding `C/C=C/C=C/C(=O)O.COc1ccc2c3c([nH]c2c1)CCN(C)CC3` [Experiment 4-Sample P], in data set [2], the “Observations (t = 1 d @ 40° C.)” value is recorded as “Suspension”, the “Observations (t = 10 d @ 40° C.)” value is “Suspension” and the “Observations (t = 0 @ 40° C.)” value is “Suspension”. In data set [2] (setting [4]), the “XRPD (IPC, 6 d, wet)” value is recorded as “Form A” and the “XRPD (post oven dried)” value is “Form A”.
With `CC=CC=CC(=O)O.COc1ccc2c3c([nH]c2c1)CCN(C)CC3` [Experiment 4-Sample G], in data set [2], the “Observations (t = 1 d @ 40° C.)” value is reported as “Suspension”, the “Observations (t = 10 d @ 40° C.)” value was “Suspension” and the “Observations (t = 0 @ 40° C.)” value is “Suspension”. Also, in data set [2] (setting [4]), the “XRPD (IPC, 6 d, wet)” value was “Form A” and the “XRPD (post oven dried)” value is “Form A”.
For the molecule `C/C=C/C=C/C(=O)O.COc1ccc2c3c([nH]c2c1)CCN(C)CC3` [Experiment 4-Sample R], in data set [2], the “Observations (t = 1 d @ 40° C.)” value is “Suspension”, the “Observations (t = 10 d @ 40° C.)” value is recorded as “Suspension” and the “Observations (t = 0 @ 40° C.)” value is given as “Suspension”. Also, in data set [2] (setting [4]), the “XRPD (IPC, 6 d, wet)” value is given as “Pattern #4” and the “XRPD (post oven dried)” value is reported as “Form A”.
With `CC=CC=CC(=O)O.COc1ccc2c3c([nH]c2c1)CCN(C)CC3` [Experiment 4-Sample N], in data set [2], the “Observations (t = 1 d @ 40° C.)” value is given as “Suspension”, the “Observations (t = 10 d @ 40° C.)” value was “Suspension” and the “Observations (t = 0 @ 40° C.)” value is listed as “Suspension”. For the same molecule, in data set [2] (setting [4]), the “XRPD (IPC, 6 d, wet)” value was “Form A” and the “XRPD (post oven dried)” value is recorded as “Form A”.
Consider `CC=CC=CC(=O)O.COc1ccc2c3c([nH]c2c1)CCN(C)CC3` [Experiment 9-Sample C], for which the “XRPD (post Filter dried)” value in data set [2] (Experiment 9, suspension equilibration at 40° C., filter dried) is recorded as “Form A”. Also, the “XRPD (IPC, 5 d, wet)” value in data set [2] (Experiment 9, suspension equilibration at 40° C., targets Pattern #3, #4, #5) was “Form A”.

Source of the values: patent publication US20230257385A1, “SALT AND SOLID FORMS OF TABERNANTHALOG” (priority 2021, published 2023).
